Measurements from publication PMC4273943 (Molecular microbiology, 2011).

Molecular target: CRP homolog RC1_3788 (CgrA) (Rhodospirillum centenum, UniProt B6IXV7)
Assay: isothermal titration calorimetry
Type: binding

## Nc1nc2c(ncn2[C@@H]2O[C@@H]3COP(=O)(O)O[C@H]3[C@H]2O)c(=O)[nH]1 [cGMP]
  Kd: 38.5 nM
